Experiments:
Assay type in all cases: physicochemical
[1] = Physical stability of crystal forms at ambient conditions; settings: converted into Form I or a mixture of Form I and its free base
Text: Methods: Three crystal forms of 2-hydroxy-6-((2-(1-isopropyl-1H-pyrazol-5-yl)pyridin-3-yl)methoxy)benzaldehyde hydrochloride with different XRPD patterns were identified in this study based on a matrix of crystallizations in various solvents, screened in 96-wells as described below. An initial drug substance was assigned as Form I. Form I was also obtained in numerous conditions during solvent crystallization in the 96-well screen and in slurry studies. Form II and Form III were also generated. Solids obtained were characterized by X-ray powder diffraction (XRPD), differential scanning calorimetry (DSC), thermogravimetry (TGA), polarizing microscope (PLM) and Fourier transform infrared spectrometer (FTIR).
(§1) In an interconversion study, a mixture of all identified crystal forms turned into Form I after slurry experiments in ethyl acetate or ethanol. […] The XRPD patterns and microscopy images of the three crystal forms are shown in FIG. 6 and FIG. 7, respectively.

[2] = Interconversion study (slurries of mixed forms in ethyl acetate or ethanol, XRPD); settings: ambient condition, hydrochloride
Method: as §1
Interconversion Study: Interconversion experiments were carried out by making slurries containing the same amount of different forms solids in ethyl acetate or ethanol. The slurries were kept stirring for days at ambient condition. The insoluble solids were recovered by filtration and examined using XRPD.
Interconversion experiments were performed with the various crystalline forms. Samples of equal amount of Form I mixed with Form II in solvents (ethyl acetate or ethanol) were slurried at ambient condition with covering. The remaining solids were collected by filtration and examined by XRPD. […] Some observed differences in the —OH stretch region at 3500 cm−1 in FTIR were most likely due to the preferred orientation which may be caused by particle size and morphology difference.

[3] = Heating to 80° C. by TGA, then XRPD; settings: heated to 80° C. by TGA
Method: Powder X-RayDiffraction (XRPD): The solid samples were examined using X-ray diffractometer (Bruker D8 advance). The system is equipped with LynxEye detector. The samples were scanned from 3 to 40° 2θ, at a step size 0.02° 2θ. The tube voltage and current were 40 KV and 40 mA respectively. The sample was transferred from sample container onto zero background XRD holder and gently ground. TGA Analysis: TGA analysis was carried out on a TA Instruments TGA Q500. Samples was placed in a tarred platinum or aluminum pan, automatically weighed and inserted into the TGA furnace. The samples were heated at a rate of 10° C./min to final temperature of 300° C. The purge gas is nitrogen for balance at 40 ml/min and for the sample at 60 ml/min, respectively. Scale-up of Form II: 60 mg or 40 mg of Compound 1 hydrochloride was dissolved in 3 mL of ethanol or 1-butanol, respectively. Both solutions were filtered, filtrates were collected and then the two filtrates were combined in (1:1) volume ratio. The resulting solution was allowed to evaporate at ambient condition to dryness to yield Form II.

[4] = Dynamic vapor sorption (DVS); settings: at 80% RH, 25.0±1.0° C.
Method: Dynamic Vapor Sorption (DVS): Dynamic moisture adsorption and desorption was studied using IGA Sorp (Hidden Isochema Ltd.Warrington, UK). About 5 mg (3˜5 mg) of a prepared sample was placed in a sample basket and hung in the measuring chamber of an IGA Sorp. For an isotherm test, the chamber temperature is maintained by a water bath at constant 25.0±1.0° C. The sample was tested at a targeted RH range from 0% to 90% full cycle in step mode. The analysis is performed in 10% increment. Time duration at each RH was set as […] Solid State Characterizaton: Form I of Compound 1 hydrochloride was characterized by XRPD (FIG. 1), TGA (FIG. 2), DSC (FIG. 3), DVS (FIG. 4). […] The crystal form of the initial drug substance is assigned as Form I.

SMILES	stability of crystal form at ambient conditions [1]	outcome of interconversion (slurry) experiments / relative thermodynamic stability [2]	XRPD after heating [3]	water picked up (DVS profile) [4]
CC(C)n1nccc1-c1ncccc1COc1cccc(O)c1C=O.Cl [Form II, 2-hydroxy-6-((2-(1-isopropyl-1H-pyrazol-5-yl)pyridin-3-yl)methoxy)benzaldehyde hydrochloride]	unstable at ambient conditions	transforms almost entirely to Form I crystals	remained unchanged	–
CC(C)n1nccc1-c1ncccc1COc1cccc(O)c1C=O.Cl [Form III, 2-hydroxy-6-((2-(1-isopropyl-1H-pyrazol-5-yl)pyridin-3-yl)methoxy)benzaldehyde hydrochloride]	unstable at ambient conditions	–	–	–
CC(C)n1nccc1-c1ncccc1COc1cccc(O)c1C=O.Cl [Form I, 2-hydroxy-6-((2-(1-isopropyl-1H-pyrazol-5-yl)pyridin-3-yl)methoxy)benzaldehyde hydrochloride]	–	the most thermodynamically stable form	–	< 1%
